Results: patent US6258780A (priority 1997, dated 2001)
“Also recorded” adds a separate entry of the source.

Assays:
[1] = BBB permeability to Evans Blue following stress, adrenaline or atropine (Example 2)
[2] = brain penetration of Evans-blue dye following stress; settings: stressed versus control
[3] = system: hippocampal slices; assay: paired-pulse facilitation in hippocampal slices; type: cell-based
[4] = system: c-fos mRNA; type: cell-based, mouse; settings: with pyridostigmine 1 mM, 1 hour; BAPTA-AM 1 uM or TTX
[5] = system: ChAT or VAChT mRNA; type: cell-based, mouse; settings: with pyridostigmine 1 mM, 1 hour; BAPTA-AM 1 uM or TTX
[6] = system: hippocampal slices, CA1 area; type: cell-based
[7] = system: serum BuChE; settings: 0.1-0.5 mg/kg; cited from earlier work
[8] = system: AChE mRNA; assay: brain AChE mRNA by RT-PCR after pyridostigmine in mice; type: in vivo, mouse; settings: pyridostigmine administration, FIG. 10A lower panel
[9] = PNS symptoms questionnaire, pyridostigmine in humans
[10] = system: synaptophysin mRNA; assay: synaptophysin mRNA control test, in vivo or in brain slices; type: cell-based
[11] = system: serum BuChE; settings: cited from earlier work
[12] = remark: listed apart in the source
Experimental: Symptoms were reported at the end of the study. […] Percent inhibition (standard deviation was calculated in comparison to the average activity calculated in non-injected, not-stressed (n=12) and stressed (n=6) animals.
In both human studies each individual was asked to report on a yes/no questionnaire regarding symptoms related to the drug.

[13] = system: serum butyrylcholinesterase (BuChE); assay: serum BuChE activity after injection in mice; type: in vivo, mouse; settings: for reduction of serum BuChE activity from normal levels: non-stressed mice, 0.1 mg/kg i.p., 10 minutes, 3 animals/group
Experimental: Symptoms were reported at the end of the study.
Stress Induction: Stress was induced in adult FVB/N mice by 2×4 minute forced swim with a 4 minute rest interval in a 60×60 cm water bath at about 21° C., adapted from Melia et al, [1994]. […] Animals were decapitated 10 minutes following injection, trunk blood was collected [Melia et al, 1994], and cerebral cortex was quickly dissected and homogenized in solution D (10 mM Tris-HCl, pH 7.4, 1M NaCl, 1% Triton-X100, 1 mM EDTA, 1:10 weight/volume)[Neville et al, 1990]

[14] = system: c-fos mRNA; assay: brain c-fos mRNA by RT-PCR after pyridostigmine in mice; type: in vivo, mouse; settings: 20 minutes following 2 mg/kg
[15] = cited from earlier work
[16] = system: readthrough (I4) AChEmRNA; assay: readthrough (I4) AChEmRNA by RT-PCR / in situ hybridization; type: cell-based, mouse
Text: FIG. 7A are photographs showing kinetic follow-up of RT-PCR: Positions of primer pairs specific for the alternatively spliced AChEmRNA subtypes are presented on the left. [Primer pair 1361+/1869- ("E6") detects mRNA encoding the synaptic AChE form; […] ("I4/E5") detects both a 549 bp product of readthrough AChEmRNA and a 432 bp product encoding the GPI-lined red blood cell (RBC) form of the enzyme]. Note that both in vivo stress and in vitro AChE inhibition promoted significant increases of the readthrough (I4) but not the synaptic (E6) or erythrocyte (E5) forms of AChEmRNA. […] Signals were detected using alkaline phosphatase-streptavidin conjugates and Fast Red as a substrate. Shown are cortical layers II-V (upper panels), and magnified pyramidal neurons of cortical layer no. 2 (lower panels).
Selective induction of readthrough AChEmRNA following stress and AChE inhibition were measured using kinetic follow-up of RT-PCR. The positions of primer pairs specific for the alternatively spliced AChEmRNA subtypes are presented on the left of the FIG. 7. [Primer pair 1361+/1869- ("E6") detects mRNA encoding the synaptic AChE form; 1361+/175- ("I4/E5") detects both a 549 bp product of readthrough AChEmRNA and a 432 bp product encoding the GPI-lined red blood cell (RBC) form of the enzyme]. Both in vivo stress (forced swimming) and in vitro AChE inhibition promoted significant increases of the readthrough (I4) but not the synaptic (E6) or erythrocyte (E5) forms of AChEmRNA. […] Signals were detected using alkaline phosphatase-streptavidin conjugates and Fast Red as a substrate. […] 2 (lower panels).

[17] = similar regimen; cited from earlier work
[18] = HRP penetration into brain following swim stress (immunohistochemistry)

Cc1cc(-c2ccc(/N=N/c3ccc4c(S(=O)(=O)O)cc(S(=O)(=O)O)c(N)c4c3O)c(C)c2)ccc1/N=N/c1ccc2c(S(=O)(=O)O)cc(S(=O)(=O)O)c(N)c2c1O [Evans-blue]
BBB permeability to Evans Blue ([1]; following stress or 10 minutes after ip adrenaline or atropine): enhanced BBB permeability | increase in brain penetration of Evans-blue under stress [2]: > 10 fold

CC(=O)OCOC(=O)CN(CC(=O)OCOC(C)=O)c1ccccc1OCCOc1ccccc1N(CC(=O)OCOC(C)=O)CC(=O)OCOC(C)=O [BAPTA-AM]
physostigmine-induced prolongation of paired-pulse facilitation ([3]; 1 uM physostigmine and 1 uM BAPTA-AM, 1 hour): complete prevention | enhanced paired-pulse facilitation ([3]; BAPTA-AM, FIG. 5A): prevented | anti-cholinesterase-induced change in c-fos mRNA [4]: attenuated; also recorded: suppressed | anti-cholinesterase-induced change in ChAT mRNA [5]: attenuated; also recorded: suppressed

CC(C)NC[C@H](O)COc1cccc2ccccc12 (racemic) [propanolol]
time for body temperature to return to normal (post injection): ≤ 80 min | time of reduction in body temperature (pyridostigmine alone or together with propanolol): ≤ 40 min

CN1[C@@H]2CC[C@H]1C[C@@H](OC(=O)C(CO)c1ccccc1)C2 (some centres unmarked) [atropine]
both phases of physostigmine-mediated hyperactivity [6]: blocked | suppression 1 hour after removal of atropine [6]: no suppression took place

C[N+](C)(C)CCOC(N)=O [carbachol]
amplitude of population spikes [6]: increased the amplitude of population spikes | signal increase by carbamylcholine [6]: dose-dependent increases in signal

CNCC(O)c1ccc(O)c(O)c1 (centres unmarked) [adrenaline]
effectiveness in opening the BBB compared with stress ([1]; administered doses and time course, atropine or adrenaline ip): somewhat less effective

CN(C)C(=O)Oc1ccc[n+](C)c1 [pyridostigmine]
inhibition of serum BuChE activity at protective doses [7]: 15-30% | AChE mRNA product appearance [8]: earlier appearance | soldiers reporting PNS symptoms, average ([9]; Gulf War, 213 soldiers): 11.4% | soldiers reporting PNS symptoms, range ([9]; Gulf War, 213 soldiers): 6.1-20.4% | participants reporting PNS symptoms, average ([9]; peace time, double-blind): 18.8% | participants reporting PNS symptoms, range ([9]; peace time, double-blind): 5.5-38.9% | synaptophysin mRNA [10]: no change | inhibition efficacy of serum butyrylcholinesterase, Gulf War [11]: not modified | soldiers reporting CNS symptoms, average ([12]; Gulf War, 213 soldiers): 23.6% | soldiers reporting CNS symptoms, range ([12]; Gulf War, 213 soldiers): 6.2-53.4% | participants reporting CNS symptoms, average ([12]; peace time, double-blind): 8.3% | participants reporting CNS symptoms, range ([12]; peace time, double-blind): 0-16.6% | amplitude and rate of rise of evoked population spikes in CA1 [6]: increase in the amplitude and rate of rise of evoked population spikes | reduction of serum BuChE activity from normal levels [13]: 16.7+/-6.9% | BuChE inhibition in stressed mice ([13]; stressed mice, 0.1 mg/kg): tendency toward limitation of BuChE inhibition | amount of c-fos and AChE mRNA (earlier appearance of PCR product) [14]: increase in the amount of c-fos (upper panel) and AChE mRNA (lower panel) | CNS functions in primates ([15]; doses >1 mg/kg): perturb CNS functions | CNS functions in non-stressed primates or humans at peace time ([15]; non-stressed): unaffected CNS functions | subcellular localization of I4-AChEmRNA ([16]; pyridostigmine 2 mg/kg): shifted from around the nucleus under control conditions to the entire cell bodies and their apical dendrites | I4-AChEmRNA labeling of cortical layers ([16]; pyridostigmine 2 mg/kg, control: layers II+V): intensified and included layer III+IV | readthrough AChE mRNA labeling of somata and apical dendrites, all cortical layers ([16]; pyridostigmine exposure): intensely labeled | frequency of reported CNS symptoms, increase during the Gulf War [17]: > 3 fold

HRP: horseradish peroxidase, used to study changes in the BBB
HRP staining of the hippocampus ([18]; following forced swimming): highest number of stained cells; also recorded: strong HRP staining | penetration of HRP into brain ([18]; forced swimming stress): increased penetration | HRP staining, Corpus callosum, non-stressed control ([18]; non-stressed control): little staining | HRP staining, Hippocampus, CA1-2, non-stressed control ([18]; non-stressed control): no staining | HRP staining, Medial hypothalamus (arcuate nucleus), non-stressed control ([18]; non-stressed control): + (diffuse staining) | HRP staining, Hippocampus, CA1-2, stressed ([18]; stressed): staining of cells | HRP staining of central nucleus of amygdala and paraventricular nucleus of hypothalamus ([18]; stressed mice): absence of HRP staining

NCCc1ccc(O)c(O)c1 [DA]
enhancement of the body temperature reduction by coinjection (DA 1.0 mg/kg with pyridostigmine 0.6 mg/kg): approximately 0.5 °C

CNC(=O)Oc1ccc2c(c1)[C@]1(C)CCN(C)[C@@H]1N2C [physostigmine]
responsiveness of cholinergic pathways to stimulation [6]: prominently muted, approaching that displayed by control slices | paired-pulse facilitation responses, 1 hour ([3]; 1 mM physostigmine, 1 hour): prolonged duration and the intense signals of facilitation responses | paired-pulse facilitation responses, 3 hours ([3]; 1 mM physostigmine, 3 hours): suppression of both these responses | reduction of serum BuChE activity from normal levels [13]: 22.6+/-5.4%
